{
  "source": "patent US11512053B2",
  "about": "“Arginine methyltransferase inhibitors and uses thereof” (priority 2013, dated 2022)",
  "key": {"[1]": {"molecular_target": "full-length human PRMT8 isoform 1 (Homo sapiens, UniProt Q9NR22)", "sequence (Q9NR22 whole entry, canonical isoform)": "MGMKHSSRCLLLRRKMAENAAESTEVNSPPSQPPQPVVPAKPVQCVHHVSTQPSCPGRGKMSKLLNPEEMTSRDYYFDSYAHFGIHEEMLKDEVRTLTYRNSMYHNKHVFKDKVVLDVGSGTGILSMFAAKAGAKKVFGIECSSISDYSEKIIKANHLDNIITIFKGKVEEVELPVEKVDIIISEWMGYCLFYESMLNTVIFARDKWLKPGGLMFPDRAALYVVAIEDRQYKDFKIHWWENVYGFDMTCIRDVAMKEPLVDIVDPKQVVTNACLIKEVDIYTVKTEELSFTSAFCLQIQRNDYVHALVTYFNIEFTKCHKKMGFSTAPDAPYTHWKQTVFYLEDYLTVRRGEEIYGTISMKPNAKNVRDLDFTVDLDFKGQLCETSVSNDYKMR", "experiment": "PRMT8 Biochemical Assay (3H-SAM Flashplate, peptide substrate)", "settings": "single experiment or average of multiple experiments; read-out: Biochemical IC50 PRMT8", "text": "(§1) General Materials. S-adenosylmethionine (SAM), S-adenosylhomocysteine (SAH), bicine, Tween20, dimethylsulfoxide (DMSO), bovine skin gelatin (BSG), isopropyl-β-D-thiogalactopyranoside (IPTG), and Tris(2-carboxyethyl)phosphine hydrochloride solution (TCEP) were purchased from Sigma-Aldrich at the highest level of purity possible. ^3H-SAM was purchase from American Radiolabeled Chemicals with a specific activity of 80 Ci/mmol. 384-well streptavidin Flashplates were purchased from PerkinElmer.\nSubstrates. Peptide representative of human histone H4 residues 31-45 was synthesized with an N-terminal linker-affinity tag motif and a C-terminal amide cap by 21st Century Biochemicals. The peptide was purified by high-performance liquid chromatography (HPLC) to greater than 95% purity and confirmed by liquid chromatography mass spectrometry (LC-MS). The sequence was Biot-Ahx-[…]-amide (SEQ ID NO.:8).\nThe resulting construct encodes an N-terminal GST tag and a thrombin cleavage sequence ([…] […] […] […] SPEF) (SEQ ID NO.:9) fused directly to Met 1 of PRMT8.\nProtein Expression. E. coli (BL21(DE3) Gold, Stratagene) made competent by the CaCl2) method were transformed with the PRMT8 construct and ampicillin selection. Protein over-expression was accomplished by growing the PRMT8 expressing E. coli clone and inducing expression with 0.3 mM IPTG at 16° C. The culture was grown for 12 hours, harvested by centrifugation, and stored at −80° C. for purification.\nProtein Purification. […] GST-tagged PRMT8 was eluted with 50 mM Tris, 2 mM glutathione, pH 7.8. Pooled fractions were cleaved by thrombin (10U) and dialysed in buffer A. GST was removed by reloading the cleaved protein sample onto glutathione sepharose column and PRMT8 was collected in the flow-through fractions. PRMT8 was purified further by ceramic hydroxyapatite chromatography. The column was washed with 50 mM phosphate buffer, 100 mM NaCl, 5% glycerol, 5 mM β-mercaptoethanol, pH 7.8 and PRMT8 was eluted by 100 mM phosphate in the same buffer. Protein was concentrated and buffer was exchanged to 50 mM Tris, 300 mM NaCl, 10% glycerol, 5 mM β-mercaptoethanol, pH 7.8 by ultrafiltration. The purity of recovered protein was 89%.\nGeneral Procedure for PRMT8 Enzyme Assays on Peptide Substrates. The assays were all performed in a buffer consisting of 20 mM Bicine (pH=7.6), 1 mM TCEP, 0.005% BSG, and 0.002% Tween 20, prepared on the day of use. Compounds in 100% DMSO (1 ul) were spotted into a polypropylene 384-well V-bottom plates (Greiner) using a Platemate Plus outfitted with a 384-channel head (Thermo Scientific). DMSO (1 ul) was added to Columns 11, 12, 23, 24, rows A-H for the maximum signal control and 1 ul of SAH, a known product and inhibitor of PRMT8, was added to columns 11, 12, 23, 24, rows I-P for the minimum signal control. A cocktail (40 ul) containing the PRMT8 enzyme was added by Multidrop Combi (Thermo-Fisher). The compounds were allowed to incubate with PRMT8 for 30 min at room temperature, then a cocktail (10 ul) containing ^3H-SAM and peptide was added to initiate the reaction (final volume=51 ul). The final concentrations of the components were as follows: PRMT8 was 1.5 nM, ^3H-SAM was 50 nM, non-radiolabeled SAM was 550 nM, peptide was 150 nM, SAH in the minimum signal control wells was 1 mM, and the DMSO concentration was 2%. The assays were stopped by the addition of non-radiolabeled SAM (10 ul) to a final concentration of 400 uM, which dilutes the ^3H-SAM to a level where its incorporation into the peptide substrate is no longer detectable. 50 ul of the reaction in the 384-well polypropylene plate was then transferred to a 384-well Flashplate and the biotinylated peptides were allowed to bind to the streptavidin surface for at least 1 hour before being washed once with 0.1% Tween20 in a Biotek ELx405 plate washer. […]"}, "[2]": {"system": "mono-methyl arginine in RKO cells", "experiment": "RKO Methylation Assay, In Cell Western (ICW) for detection of mono-methyl arginine and DNA content", "type": "cell-based", "settings": "for EC30: Homo sapiens, RKO, 72 h", "text": "RKO adherent cells were purchased from ATCC (American Type Culture Collection), Manassas, Va., USA. DMEM/Glutamax medium, penicillin-streptomycin, heat inactivated fetal bovine serum, 0.05% trypsin and D-PBS were purchased from Life Technologies, Grand Island, N.Y., USA. Odyssey blocking buffer, 800 CW goat anti-rabbit IgG (H+L) antibody, and Licor Odyssey infrared scanner were purchased from Licor Biosciences, Lincoln, Nebr., USA. Mono-methyl arginine antibody was purchased from Cell Signaling Technology, Danvers, Mass., USA. Methanol was purchased from VWR, Franklin, Mass., USA. 10% Tween 20 was purchased from KPL, Inc., Gaithersburg, Md., USA. DRAQ5 was purchased from Biostatus Limited, Leicestershire, UK.\nRKO adherent cells were maintained in growth medium (DMEM/Glutamax medium supplemented with 10% v/v heat inactivated fetal bovine serum and 100 units/mL penicillin-streptomycin) and cultured at 37° C. under 5% CO2.\nCell treatment, In Cell Western (ICW) for detection of mono-methyl arginine and DNA content. […] Compound (100 nL) from a 96-well source plate was added directly to 384 well cell plate. Plates were incubated at 37° C., 5% CO2 for 72 hours. After three days of incubation, plates were brought to room temperature outside of the incubator for ten minutes and blotted on paper towels to remove cell media. 50 μL of ice cold 100% methanol was added directly to each well and incubated for 30 min at room temperature. After 30 min, plates were transferred to a Biotek EL406 plate washer and washed 2 times with 100 μL per well of wash buffer (1×PBS). Next 60 μL per well of Odyssey blocking buffer (Odyssey Buffer with 0.1% Tween 20 (v/v)) were added to each plate and incubated 1 hour at room temperature. Blocking buffer was removed and 20 μL per well of primary antibody was added (mono-methyl arginine diluted 1:200 in Odyssey buffer with 0.1% Tween 20 (v/v)) and plates were incubated overnight (16 hours) at 4° C. Plates were washed 5 times with 100 μL per well of wash buffer. […] The plates were washed 5 times with 100 μL per well wash buffer then 2 times with 100 μL per well of water. Plates were allowed to dry at room temperature then imaged on the Licor Odyssey machine which measures integrated intensity at 700 nm and 800 nm wavelengths. Both 700 and 800 channels were scanned.\nCalculations: First, the ratio for each well was determined by:\nEach plate included fourteen control wells of DMSO only treatment (minimum activation) as well as fourteen control wells for maximum activation treated with 20 μM of a reference compound. The average of the ratio values for each control type was calculated and used to determine the percent activation for each test well in the plate. Reference compound was serially diluted three-fold in DMSO for a total of nine test concentrations, beginning at 20 μM. Percent activation was determined and EC30 curves were generated using triplicate wells per concentration of compound."}, "[3]": {"molecular_target": "full-length human PRMT6 (Flag- and His-tagged) (Homo sapiens, UniProt Q96LA8)", "sequence (Q96LA8 with tags, fused parts or gaps)": "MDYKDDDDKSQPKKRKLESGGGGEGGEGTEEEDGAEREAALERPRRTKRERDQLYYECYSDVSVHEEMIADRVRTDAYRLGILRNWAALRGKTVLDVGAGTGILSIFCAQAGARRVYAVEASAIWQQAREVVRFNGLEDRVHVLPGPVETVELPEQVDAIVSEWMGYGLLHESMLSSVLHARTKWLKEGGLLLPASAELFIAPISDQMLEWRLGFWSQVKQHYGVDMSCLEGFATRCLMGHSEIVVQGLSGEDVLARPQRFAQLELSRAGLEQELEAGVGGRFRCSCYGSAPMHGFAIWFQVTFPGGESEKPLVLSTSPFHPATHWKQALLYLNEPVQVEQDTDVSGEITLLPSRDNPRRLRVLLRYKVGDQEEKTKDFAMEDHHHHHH", "experiment": "PRMT6 Biochemical Assay (3H-SAM Flashplate, peptide substrate)", "text": "as §1, with “sodium butyrate” for “isopropyl-β-D-thiogalactopyranoside (IPTG),”\nSubstrates. Peptide representative of human histone H4 residues 36-50 was synthesized with an N-terminal linker-affinity tag motif and a C-terminal amide cap by 21st Century Biochemicals. The peptide was purified by high-performance liquid chromatography (HPLC) to greater than 95% purity and confirmed by liquid chromatography mass spectrometry (LC-MS). The sequence was Biot-Ahx-[…]-amide and contained a monomethylated lysine at position 44 (SEQ ID NO.:5).\nMolecular Biology: Full-length human PRMT6 (NM_018137.2) transcript clone was amplified from an HEK 293 cDNA library, incorporating a flanking 5′ sequence encoding a FLAG tag ([…]) (SEQ ID NO.:6) fused directly to Ser 2 of PRMT6 and a 3′ sequence encoding a hexa His sequence (HHHHHH) (SEQ ID NO.:17) fused directly to Asp 375. The amplified gene was subcloned into pFastBacMam (Viva Biotech).\nProtein Expression. Recombinant baculovirus were generated according to Bac-to-Bac kit instructions (Life Technologies). […] Infections were carried out at 37° C. for 48 hours, harvested by centrifugation, and stored at −80° C. for purification.\nProtein Purification. […] Column was washed with 20 mM imidazole in the same buffer and Flag-PRMT6-His was eluted with 150 mM imidazole. Pooled fractions were dialysed against buffer N^1-A and further purified by anti-flag M2 affinity chromatography. Flag-PRMT6-His was eluted with 200 ug/ml FLAG peptide in the same buffer. Pooled fractions were dialysed in 20 mM Tris, 150 mM NaCl, 10% glycerol and 5 mM β-mercaptoethanol, pH 7.8. The purity of recovered protein was 95%.\nGeneral Procedure for PRMT6 Enzyme Assays on Peptide Substrates. The assays were all performed in a buffer consisting of 20 mM Bicine (pH=7.6), 1 mM TCEP, 0.005% BSG, and 0.002% Tween 20, prepared on the day of use. Compounds in 100% DMSO (1 ul) were spotted into a polypropylene 384-well V-bottom plates (Greiner) using a Platemate Plus outfitted with a 384-channel head (Thermo Scientific). DMSO (1 ul) was added to Columns 11, 12, 23, 24, rows A-H for the maximum signal control and 1 ul of SAH, a known product and inhibitor of PRMT6, was added to columns 11, 12, 23, 24, rows I-P for the minimum signal control. A cocktail (40 ul) containing the PRMT6 enzyme was added by Multidrop Combi (Thermo-Fisher). The compounds were allowed to incubate with PRMT6 for 30 min at room temperature, then a cocktail (10 ul) containing SAM and peptide was added to initiate the reaction (final volume=51 ul). The final concentrations of the components were as follows: PRMT6 was 1 nM, ^3H-SAM was 200 nM, non-radiolabeled SAM was 250 nM, peptide was 75 nM, SAH in the minimum signal control wells was 1 mM, and the DMSO concentration was 2%. The assays were stopped by the addition of non-radiolabeled SAM (10 ul) to a final concentration of 400 uM, which dilutes the ^3H-SAM to a level where its incorporation into the peptide substrate is no longer detectable. 50 ul of the reaction in the 384-well polypropylene plate was then transferred to a 384-well Flashplate and the biotinylated peptides were allowed to bind to the streptavidin surface for at least 1 hour before being washed once with 0.1% Tween20 in a Biotek ELx405 plate washer. The plates were then read in a PerkinElmer TopCount plate reader to measure the quantity of ^3H-labeled peptide bound to the Flashplate surface, measured as disintegrations per minute (dpm) or alternatively, referred to as counts per minute (cpm). […]"}},
  "note": "Where a name gives a salt, the structure may show the parent alone. Read-outs that look alike come from different tables or passages of the source.",
  "data": [
    {"smiles": "CN(CCN)Cc1c[nH]nc1C1CCC(N2CCOCC2)CC1", "note": "(stereo not shown) [Compound 43, N^1-methyl-N^1-((3-(4-morpholinocyclohexyl)-1H-pyrazol-4-yl)methyl)ethane-1,2-diamine]", "values": [
      {"measurement": "IC50", "setting": "[1]", "result": 0.0116, "unit": "µM"},
      {"measurement": "EC30", "setting": "[2]; RKO cells, 72 hours incubation, mono-methyl arginine signal normalised to DNA content, single experiment or average of multiple experiments, read-out: In Cell Western EC30", "result": 2.6, "unit": "µM"},
      {"measurement": "In Cell Western EC30", "setting": "[2]; RKO cells, 72 hours compound incubation, mono-methyl arginine signal normalised to DNA content (DRAQ5), percent activation vs 20 μM reference compound", "result": "A (“A” indicates an EC30 ≤ 3.00 μM)"}
    ]},
    {"smiles": "CCOCC1(COCC)CCC(c2n[nH]cc2CN(C)CCNC)CC1", "note": "[Compound 158, ([3-[4,4-bis(ethoxymethyl)cyclohexyl]-1H-pyrazol-4-yl]methyl)(methyl)[2-(methylamino)ethyl]amine hydrochloride salt]", "values": [
      {"measurement": "IC50", "setting": "[3]; Biochemical IC50 PRMT6", "result": "< 0.1", "unit": "µM"},
      {"measurement": "IC50", "setting": "[3]; Biochemical IC50 PRMT6, single experiment or average of multiple experiments", "result": 0.091, "unit": "µM"},
      {"measurement": "EC30", "setting": "[2]; read-out: In Cell Western EC30, RKO cells, 72 hours compound incubation, mono-methyl arginine signal normalised to DNA content (DRAQ5), percent activation vs 20 μM reference compound", "result": "< 3", "unit": "µM"},
      {"measurement": "EC30", "setting": "[2]; read-out: In Cell Western EC30, RKO cells, 72 hours incubation, mono-methyl arginine signal normalised to DNA content, single experiment or average of multiple experiments", "result": 0.008, "unit": "µM"}
    ]}
  ]
}
